melting point [°C] | SMILES
116 to 117 | O=C(NCCO)c1cccc(-c2cccc3nn(Cc4ccc(F)c(F)c4)cc23)c1
135 to 140 | COc1ccc2nccc([C@@H]3CN(CCCNS(=O)(=O)c4ccc5c(c4)NC(=O)CS5)C(=O)O3)c2c1
251 to 253 | N#Cc1cnc2cc(C#CCO)ccc2c1Nc1ccc(Cl)cc1Cl
92 to 93 | COC(=O)c1ccccc1-c1cc(-c2ccc(OC)cc2)[nH]n1
94 to 95 | Cc1c(C)c2c(c(C)c1N)CC(C)(CN1CCN(c3ccccc3)CC1)O2 (stereo not given)
78 to 83 | Nc1ccc(OC2=C(Oc3ccc(N)cc3)C(F)(F)C(F)(F)C2(F)F)cc1
100 to 102 | Fc1ccc(-c2nc(CI)co2)cc1
244 to 246 | O=C(O)c1cc(Br)c2cccnc2c1O
169 to 170 | CCN(CC)c1ccc2nc3c4ccccc4c(=Nc4ccccn4)cc-3oc2c1
100 to 112 | COC(=O)C(O)Cc1ccc(OCCN(C)c2nc3ccccc3o2)cc1 (stereo not given)
116 to 120 | Cc1ccc2c(c1)c(-c1ccc(F)cc1)cn2N
190 to 192 | NC(=O)c1ccccc1NC(=S)NC(=O)c1ccccc1
289 | FC(F)(F)c1cc(-c2ccc(Cl)c(Cl)c2)nc2c(-c3nc(Nc4ccccn4)no3)cnn12
130 | CCOC(=O)C1(S(=O)(=O)c2ccc(OC)cc2)CCN(Cc2ccc(-c3cccs3)cc2)CC1
> 200 | CN(C)Cc1ccc(-c2csc(NC(=N)N)n2)o1
182 to 185 | Cn1cccc1C(=O)NN(C(=O)c1ccccc1)C(C)(C)C
69 | CC(C)c1nn2ccccc2c1C(O)C(C)C (stereo not given)
141 to 142 | CC(C#Cc1ccc(Oc2ccccc2)cc1)N(O)C(N)=O (stereo not given)
126 to 128 | CCN(CC)CC(O)CNC(=O)c1c(OC)c2cc(C)ccc2n1-c1ccccc1 (stereo not given)
117 to 119 | CCN(CC)c1ccc2c(c1)Oc1cc(OC)c(N(c3ccccc3)c3ccccc3)cc1C2c1ccccc1C(=O)OC (stereo not given)
206 to 207 | O=[N+]([O-])c1cccc2c3c(cc([N+](=O)[O-])c12)NCC3CCl (stereo not given)
179 to 181 | O=C(CCC1CCN(C(=O)OCc2ccc([N+](=O)[O-])cc2)CC1)c1ccc2c(c1)CN1C(=O)c3ccccc3C1CC2 (stereo not given)
158 to 160 | Nc1c(C(=O)c2ccccc2OCc2ccccc2)oc2ccc(Cl)cc12
123 to 124 | NC(=O)Cc1cc(Oc2ccc3c(ccn3C(=O)Nc3ccc(CN4CCCC4)c(C(F)(F)F)c3)c2)ncn1
133 to 134 | COc1cc(N)c(Cl)cc1C(=O)CCC1CCN(C(=O)OC(C)(C)C)CC1
66 to 67.5 | CC(C)CC(=Cc1ccccc1)C(=O)O
83 to 85 | COC(=O)c1ccc2oc(CCCCCc3cc4cc(C(=O)OC)ccc4o3)cc2c1
171 to 173 | COc1cc(CN2CCN(C(=O)c3cc4ccccc4oc3=O)CC2)cc(OC)c1OC

The next lines start with the molecule.

SMILES | melting point [°C]
O=c1ccn(-c2cc3[nH]c(=O)c(=O)[nH]c3cc2[N+](=O)[O-])cc1 | > 300
Cc1cccc(C)c1N1C(=S)N(C)C(O)C1O (stereo not given) | 140 to 143
CCN(CC)CCCC1CCCN(C(=O)N2c3ccccc3NC(=O)c3csc(C)c32)C1 (stereo not given) | 136 to 138
NC(=O)C1CCc2ccccc2O1 (stereo not given) | 125 to 127
COc1ccc(-c2nn(C3CCCC3)c3c(C(F)(F)F)cccc23)c(OC)c1 | 79 to 80
CC(=O)NCc1nc(-c2ccc3c(c2)Nc2ccccc2S3)cs1 | 219 to 221
Cc1[nH]nc(Nc2ccccc2)c1C(=O)OC(C)C | 138 to 139
CC(C)(C)OC(=O)NC(CNC(=O)c1ccccc1)C(=O)O (stereo not given) | 110 to 111
COc1ccc2c(C(=O)N3CCC[C@H]3C(=O)O)cc3cc4c(cc3c2c1)OCO4 | 207 to 208
O=c1c2ccc3[nH]ccc3c2ccn1Cc1ccc(F)cc1 | 171 to 173
CCCCC(C)C(O)C=Cc1ccc(OCc2ccccc2)c(OCc2ccccc2)c1 (stereo not given) | 77 to 78
N#Cc1cccc(-c2nnc(-c3cccnc3)o2)c1 | 170 to 174
CCOC(=O)c1cnc2cc(Cl)ccc2c1Cl | 81 to 82
CCCN(CCC)c1c(CC)nn2c(-c3ccc(N(C)C)cc3C(F)(F)F)cccc12 | 69.1 to 79.8
CC1(c2n[nH]c(=O)o2)CC1 | 68 to 70
CC(C)(CCl)C(=O)NO | 148 to 151
NC(=O)Cc1cc(Cl)ccc1[N+](=O)[O-] | 115 to 116
CCOC(=O)N(CC(=O)O)C(=O)c1c(Cl)ccc2c(C(F)(F)F)c(OC)ccc12 | 144 to 146
O=C1N(CCN(c2ccccn2)c2ccccn2)c2ccccc2C12COc1cc3c(cc12)OCO3 (stereo not given) | 165 to 167
Cc1nn(-c2cccc(C(F)(F)F)c2)cc1C(=O)N(CC(=O)O)c1ccc(OCC(C)(C)C)c(C#N)c1 | 110 to 112
O=c1ccc(-c2ccc(CCCO)cc2)cn1Cc1ccc(Cl)cc1 | 165

SMILES | melting point [°C]
CCCCCCCCCCOS(=O)(=O)NC(=O)Nc1c(C(C)C)cccc1C(C)C | 133 to 135
COc1ccc(-c2c(CO)c(CO)c3sc4ccccc4n23)cc1 | 156 to 157
C=C(CC1(CC(=C)c2ccc(C(=O)Nc3ccccc3N)cc2)C(=O)N(C)C(=O)N(C)C1=O)c1ccc(C(=O)Nc2ccccc2N)cc1 | 161 to 163
O=C(O)Cc1ccc2ccn(C(=O)c3ccccc3)c2c1 | 113 to 115
CCOC(=O)CNC(=O)C(C)(C)c1ccc(C2=NC(C)(C)Cc3cc(OC)c4c(c32)CC(C)(C)O4)cc1 | 133 to 138
CSc1ccc(-c2nc(SC)c(C#N)c(=O)n2-c2ccc(C)cc2C)cc1 | 203 to 205
CCOP(=O)(/C=C/c1ccc2cc(NC(=O)c3cccnc3)cc(-c3cccc4ccccc34)c2n1)OCC | 216 to 217
Cc1ccc(C=NNc2ccc(S(N)(=O)=O)cc2)cc1 | 216 to 218
CC(C)(C)OC(=O)NC(=O)C(c1ccccc1)c1ccccc1 | 160 to 162
Cc1ccc(N)cc1Nc1nccc(-c2ccc(Cl)nc2)n1 | 117 to 118
CCC(CC)c1ccc(C(F)(F)F)c2[nH]c(=O)n(C)c12 | 205 to 206
COc1ccc2cc(-c3oc4ccccc4c3C(O)CC3CCCC3)ccc2c1 (stereo not given) | 176 to 177
CN1Cc2c(CCl)ncn2-c2ccccc2C1=O | 277 to 280
COc1cc2ccc(-c3cc4c(cc3[N+](=O)[O-])OCO4)c([N+](=O)[O-])c2cc1OC | 187 to 189
CCOC(=O)c1cc(CCCOCCCCCCNCC(O)c2cc(Cl)c(N)c(Cl)c2)ccn1 (stereo not given) | 68 to 70
COc1ccccc1-c1ccn(C(C)C(=O)N(C)C)n1 (stereo not given) | 92 to 94
CN(C)CC1CCCCN1CC(=O)N1c2ccccc2NC(=O)c2cscc21 (stereo not given) | 208 to 209
CNS(=O)(=O)c1cccc(OC)c1C#N | 121 to 128
O=C(O)COc1cc(Cl)ccc1C(=O)NCc1c(F)cccc1F | 188 to 190
Cc1n[nH]c(Cn2ccnc2C)c1Oc1cc(Cl)cc(C#N)c1 | 212 to 214
COc1cccc(NC(=O)NC2N=C(c3ccccc3)c3ccccc3N(C)C2=O)c1 (stereo not given) | 216 to 219

From a melting point compilation (Tetko et al.; mined from patent text by program, amines drawn as free bases though some values may be those of a salt)
